The text below walks through data of paper PMC6155332, “Antimalarials with Benzothiophene Moieties as Aminoquinoline Partners” (Molecules : A Journal of Synthetic Chemistry and Natural …, 2017).

Assay [1] relates to P. falciparum W2 (CQ resistant (CQR) strain). The experiment in a line: microbe, parasite or virus in culture. The assay is classed as cell-based, Plasmodium falciparum. To be noted: for IC50: Plasmodium falciparum, W2, read-out: In Vitro Antimalarial Activity (P. falciparum, IC50, nM) W2; for RI W2/D6 (resistance index): IC50 W2 / IC50 D6.
In assay [2] the test system is P. falciparum TM91C235 (Thailand, multidrug-resistant (MDR) strain). The experiment in a line: Malaria SYBR Green Fluorescence Assay, TM91C235 strain. The assay is classed as cell-based. To be noted: Plasmodium falciparum, read-out: In Vitro Antimalarial Activity (P. falciparum, IC50, nM) C235.
The test system of assay [3] is P. falciparum D6 (CQ susceptible (CQS) strain). The assay is described as follows: Malaria SYBR Green Fluorescence Assay, D6 strain. To be noted: Plasmodium falciparum; CQ susceptible African D6 clone; read-out: In Vitro Antimalarial Activity (P. falciparum, IC50, nM) D6. The assay is classed as cell-based.
In a further assay the test system is P. berghei (ANKA). The experiment in a line: Modified Thompson test, P. berghei mouse efficacy. The assay is classed as in vivo, Plasmodium berghei. Here is the method: In a separate host toxicity study, benzothiophene 25 was subjected to in vivo toxicity evaluation. […]
The P. berghei (ANKA) mouse efficacy tests were conducted using a modified version of the Thompson test. Groups of five mice were inoculated intraperitoneally with erythrocytes infected with P. berghei on day 0. Drugs were suspended in 0.5% hydroxyethylcellulose-0.1% Tween 80 and administered orally once a day beginning on day 3 post infection. […] Cure was defined as survival (with no parasitemia) until day 31 post-treatment. Parasitemia was determined by thin-blood Giemsa-stained smears prepared from mice tail blood of each animal on days 0, 3, 6, 10, 13, 17, 20, 24, 27, and 31 (postinfection). The slides were examined under a light microscope.

The subject of assay [4] is HepG2 (hepatocellular carcinoma) cell line. The experiment in a line: Compound toxicity in HepG2 cell line. Format: cell-based, human. To be noted: for IC50: Homo sapiens, HepG2, hepatocellular carcinoma cells; for SI HepG2/D6 (selectivity index): IC50 HepG2 / IC50 D6. Here is the method:
To investigate possible toxicity issues, the synthesized compounds were evaluated in vitro against a human hepatoma cell line (HepG2).
Synthesized aminoquinolines were screened in vitro against P. falciparum strains: CQ and MFQ susceptible strain D6 (clone of Sierra Leone/UNC isolate), CQ resistant but MFQ susceptible strain W2 (clone of Indochina isolate), and CQ and MFQ resistant strain TM91C235 (clone of South East Asian isolate) using the Malaria SYBR Green Fluorescence Assay. Full method details are given in Supplementary Materials I. Assessment of compound toxicity in a HepG2 (hepatocellular carcinoma) cell line followed the protocol described in Ref. [40].

Where [5] appears, read: infected mice, 160 mg/kg/day p.o., days 3–5 postinfection.

A value given as a limit tells only on which side of the number the result lay.

For orientation: IC50 means the concentration needed to halve the response being measured. Take `CCN(CC)CCCC(C)Nc1ccnc2cc(Cl)ccc12` (centres unmarked) [CQ, chloroquine, reference compound]: the IC50 came to 595 nM in assay [1], 206 nM in assay [2] and 15 nM in assay [3]. Moreover, in the assay with P. berghei (ANKA) (160 mg/kg/day p.o. days 3–5, days 6–31), the “Parasitemia D6-D31” value amounted to 5 mice negative. In the assay with P. berghei (ANKA) (setting [5]), the “Mean Survival Time (MST, Days)” value was greater than 31 days. Further, in the assay with P. berghei (ANKA) (setting [5]), the “Mice Alive on Day 31” value is recorded as 5/5.
As to `c1ccc2sc(CNCCCNc3ccnc4ccccc34)cc2c1` [Compound 8], in assay [1], the “RI W2/D6 (resistance index)” value was determined as 5.2. In addition, the 50% inhibitory concentration (IC50) in assay [1] was 104 nM; in assay [2], 107 nM; in assay [3], 20 nM; in assay [4], 8.87 µM. Also, the “SI HepG2/D6 (selectivity index)” value in assay [4] was 440.
Consider `c1ccc2sc(CNCCCCNc3ccnc4ccccc34)cc2c1` [Compound 9], for which the “RI W2/D6 (resistance index)” value in assay [1] is recorded as 13.6. For the same compound, the IC50 came out at 191 nM in assay [1], 205 nM in assay [2], 14 nM in assay [3] and 4.87 µM in assay [4]. For the same compound, in assay [4], the “SI HepG2/D6 (selectivity index)” value is 339.
For `Fc1ccc2c(CNCCCNc3ccnc4ccccc34)csc2c1` [Compound 12], the “RI W2/D6 (resistance index)” value in assay [1] was 8.8. For the same compound, the half-inhibitory concentration (IC50) came to 185 nM in assay [1], 191 nM in assay [2], 21 nM in assay [3] and 4.48 µM in assay [4]. For the same compound, the “SI HepG2/D6 (selectivity index)” value in assay [4] is on record as 211.
Regarding `Fc1ccc2scc(CNCCCCNc3ccnc4ccccc34)c2c1` [Compound 13], in assay [1], the “RI W2/D6 (resistance index)” value is 12.6. Also, the IC50 was found to be 201 nM in assay [1], 177 nM in assay [2], 16 nM in assay [3] and 2.73 µM in assay [4]. Further, in assay [4], the “SI HepG2/D6 (selectivity index)” value was determined as 172.
For the compound `Fc1ccc2scc(-c3ccc(CNCCCNc4ccnc5ccccc45)cc3)c2c1` [Compound 23], the “RI W2/D6 (resistance index)” value in assay [1] is on record as 5.1. In addition, the IC50 turned out to be 144 nM in assay [1], 111 nM in assay [2], 28 nM in assay [3] and 3.83 µM in assay [4]. Besides, in assay [4], the “SI HepG2/D6 (selectivity index)” value is given as 136.
Turning to `Fc1ccc2scc(-c3ccc(CNCCCCCCNc4ccnc5ccccc45)cc3)c2c1` [Compound 24], in assay [1], the “RI W2/D6 (resistance index)” value is reported as 4.6. Besides, the 50% inhibitory concentration (IC50) in assay [1] came out at 277 nM; in assay [2], 242 nM; in assay [3] it was 60 nM; in assay [4], 2.23 µM. Also, in assay [4], the “SI HepG2/D6 (selectivity index)” value is 37.
Turning to `CC(CCCNCc1ccc(-c2csc3ccc(F)cc23)cc1)Nc1ccnc2ccccc12` (centres unmarked) [Compound 26], in assay [1], the “RI W2/D6 (resistance index)” value is on record as 1.5. Also, the IC50 in assay [1] came to 55 nM; in assay [2] it was 45 nM; in assay [3] it was 36 nM; in assay [4], 2.35 µM. In addition, in assay [4], the “SI HepG2/D6 (selectivity index)” value is recorded as 65.
For the compound `CC(CCCN(C)Cc1ccc(-c2csc3ccc(F)cc23)cc1)Nc1ccnc2ccccc12` (centres unmarked) [Compound 27], the “RI W2/D6 (resistance index)” value in assay [1] was determined as 4.3. Also, the IC50 came to 126 nM in assay [1], 126 nM in assay [2], 29 nM in assay [3] and 5 µM in assay [4]. For the same compound, in assay [4], the “SI HepG2/D6 (selectivity index)” value was determined as 173.
Regarding `N#Cc1ccc2scc(-c3ccc(CNCCCCNc4ccnc5ccccc45)cc3)c2c1` [Compound 28], in assay [1], the “RI W2/D6 (resistance index)” value was 31.3. Besides, the 50% inhibitory concentration (IC50) came out at 188 nM in assay [1], 129 nM in assay [2], 6 nM in assay [3] and 2.58 µM in assay [4]. For the same compound, in assay [4], the “SI HepG2/D6 (selectivity index)” value is on record as 401.
As for `CC(CCCNCc1ccc(-c2csc3ccc(C#N)cc23)cc1)Nc1ccnc2ccccc12` (centres unmarked) [Compound 29], the “RI W2/D6 (resistance index)” value in assay [1] is given as 3.4. Also, the IC50 came to 44 nM in assay [1], 46 nM in assay [2], 13 nM in assay [3] and 2.41 µM in assay [4]. The “SI HepG2/D6 (selectivity index)” value in assay [4] is recorded as 192.
Take `N#Cc1ccc2scc(-c3ccc(CNCCCCCCNc4ccnc5ccccc45)cc3)c2c1` [Compound 30]: the “RI W2/D6 (resistance index)” value in assay [1] came out at 6.8. Also, the IC50 in assay [1] amounted to 81 nM; in assay [2] it was 51 nM; in assay [3], 12 nM; in assay [4], 1.98 µM. The “SI HepG2/D6 (selectivity index)” value in assay [4] was 162.
`N#Cc1ccc2c(-c3ccc(CNCCCCNc4ccnc5ccccc45)cc3)csc2c1` [Compound 31]: the “RI W2/D6 (resistance index)” value in assay [1] is 15.2. The IC50 in assay [1] came out at 197 nM; in assay [2] it was 93 nM; in assay [3] it was 13 nM; in assay [4] it was 3.58 µM. In addition, the “SI HepG2/D6 (selectivity index)” value in assay [4] is reported as 276.
For the compound `N#Cc1ccc2c(-c3ccc(CNCCCCCCNc4ccnc5ccccc45)cc3)csc2c1` [Compound 32], the “RI W2/D6 (resistance index)” value in assay [1] was 1.8. Moreover, the concentration for half-maximal inhibition (IC50) in assay [1] was determined as 102 nM; in assay [2], 29 nM; in assay [3], 55 nM; in assay [4], 2.05 µM. In assay [4], the “SI HepG2/D6 (selectivity index)” value is reported as 37.
Turning to `N#Cc1ccc(-c2ccc(-c3ccc(CNCCNc4ccnc5cc(Cl)ccc45)cc3)s2)cc1` [Compound 37], the “RI W2/D6 (resistance index)” value in assay [1] was found to be 0.5. Besides, the IC50 in assay [1] was 26 nM; in assay [2] it was 60 nM; in assay [3] it was 49 nM; in assay [4], greater than 30.6 µM.
In the case of `N#Cc1ccc(-c2ccc(-c3ccc(CNCCCNc4ccnc5cc(Cl)ccc45)cc3)s2)cc1` [Compound 38], the “RI W2/D6 (resistance index)” value in assay [1] worked out at 0.2. Further, the half-inhibitory concentration (IC50) amounted to 20 nM in assay [1], 43 nM in assay [2], 84 nM in assay [3] and 2.56 µM in assay [4]. The “SI HepG2/D6 (selectivity index)” value in assay [4] is on record as 30.
On to `N#Cc1ccc(-c2ccc(-c3ccc(CNCCCCNc4ccnc5cc(Cl)ccc45)cc3)s2)cc1` [Compound 39], for which, in assay [1], the “RI W2/D6 (resistance index)” value is 0.8. For the same compound, the IC50 was 46 nM in assay [1], 52 nM in assay [2], 59 nM in assay [3] and greater than 5.79 µM in assay [4].
In the case of `N#Cc1ccc(-c2ccc(-c3ccc(CNCCCCCNc4ccnc5cc(Cl)ccc45)cc3)s2)cc1` [Compound 40], the “RI W2/D6 (resistance index)” value in assay [1] is recorded as 0.5. Further, the IC50 in assay [1] came out at 41 nM; in assay [2], 54 nM; in assay [3], 80 nM; in assay [4], 6.7 µM. In assay [4], the “SI HepG2/D6 (selectivity index)” value stood at 84.
As to `N#Cc1ccc(-c2ccc(-c3ccc(CNCCCCCCNc4ccnc5cc(Cl)ccc45)cc3)s2)cc1` [Compound 41], the “RI W2/D6 (resistance index)” value in assay [1] turned out to be 0.5. Also, the IC50 in assay [1] amounted to 13 nM; in assay [2], 20 nM; in assay [3] it was 27 nM; in assay [4], 2.42 µM. The “SI HepG2/D6 (selectivity index)” value in assay [4] amounted to 89.
As to `N#Cc1ccc(-c2ccc(-c3ccc(CNCCCCNc4ccnc5ccccc45)cc3)s2)cc1` [Compound 43], the “RI W2/D6 (resistance index)” value in assay [1] was 26. For the same compound, the concentration for half-maximal inhibition (IC50) came to 106 nM in assay [1], 34 nM in assay [2], 4 nM in assay [3] and 8.15 µM in assay [4]. In assay [4], the “SI HepG2/D6 (selectivity index)” value turned out to be 2038.
With `N#Cc1ccc(-c2ccc(-c3ccc(CNCCCCCCNc4ccnc5ccccc45)cc3)s2)cc1` [Compound 44], the “RI W2/D6 (resistance index)” value in assay [1] came out at 0.7. For the same compound, the half-maximal inhibitory concentration (IC50) in assay [1] was 74 nM; in assay [2] it was 54 nM; in assay [3], 101 nM; in assay [4], 4.08 µM. In addition, the “SI HepG2/D6 (selectivity index)” value in assay [4] is 40.
Turning to `C#Cc1ccc(-c2ccc(-c3ccc(CNCCCCCCCCNc4ccnc5ccccc45)cc3)s2)cc1` [Compound 52], in assay [1], the “RI W2/D6 (resistance index)” value was 1.5. Further, the IC50 was found to be 259 nM in assay [1], 274 nM in assay [2], 177 nM in assay [3] and 9.23 µM in assay [4]. In assay [4], the “SI HepG2/D6 (selectivity index)” value turned out to be 52.
In the case of `OC(c1cc(C(F)(F)F)nc2c(C(F)(F)F)cccc12)C1CCCCN1` (centres unmarked) [MFQ, mefloquine, reference compound], the “RI W2/D6 (resistance index)” value in assay [1] is reported as 0.3. Further, the IC50 in assay [1] is 7 nM; in assay [2], 55 nM; in assay [3] it was 23 nM.
